This is an account of results in publication PMC7237710, “Thanatin Impairs Lipopolysaccharide Transport Complex Assembly by Targeting LptC–LptA Interaction and Decreasing LptA Stability” (Frontiers in Microbiology, 2020).

One series has as its system LptAm. To be noted: SPR, Biacore T200, CM3 chip, HBS-N; peptide 0, 0.1, 1 μM; listed as Scr. An excerpt: (§1) Escherichia coli LptC lacking the first 23 residues of the transmembrane domain was expressed from a plasmid (LptC pQESH, QIAGEN) with an N-terminal His-Tag and purified as described ([Laguri et al., 2017]). LptC was expressed in ^15N enriched deuterated medium with specific ^13C-^1H labeling of Isoleucines δ1 and Leucine and Valine proR methyl groups according to standard protocols ([Kerfah et al., 2015]) with NMRbio precursors^1. LptAm coding for residues 28–159 followed by a […] TAG in a pET21b vector was expressed and purified as described ([Laguri et al., 2017]). Both proteins were exchanged to 50 mM Na2HPO4 pH 8.0, 150 mM NaCl buffer.
(§2) Surface plasmon resonance (SPR) experiments were performed on a Biacore T200 with a CM3 chip. HBS-P+ and HBS-N buffers (GE Healthcare) were used for immobilization and interactions, respectively. 66 Resonance units (RUs) of LptAm were immobilized on a flow cell by the amine (EDC-NHS) coupling method followed by ethanolamine saturation, with a flow cell modified only with EDC-NHS-ethanolamine as reference for subtractions. For interactions, protein and ligands were diluted in HBS-N running buffer and regeneration between injections achieved with a 30 s pulse of 10 mM HCl. Sensorgrams shown were subtracted with the reference flow cell as well as with injection of buffer alone.

Series [1] concerns permeabilized E. coli mutants (AS19 and NR698). Description: MIC, permeabilized E. coli mutants. It counts as cell-based, Escherichia coli. To be noted: permeabilized mutant strains; in words. On the procedure: (§3) The minimal inhibitory concentration (MIC) values of thanatin, thanatin scramble, and vancomycin (as a positive control) were assessed with a protocol adapted from [Wiegand et al. (2008)] using 96-well microtiter plates. Stationary phase cultures of the E. coli WT strain MG1655 ([Blattner et al., 1997]), the permeabilized mutants AS19 ([Sekiguchi and Iida, 1967]) and NR698 ([Ruiz et al., 2005]), and the BACTH strain BTH101 ([Karimova et al., 1998]; [Ouellette et al., 2017]) grown at 37°C in LB medium, were diluted in fresh medium adjusting the OD600 to a value of 0.05 and incubated in the presence of twofold decreasing concentrations of the compounds ranging from 64 μg/mL to 62.5 ng/mL. After 24 h of incubation at 37°C, the OD600 was measured by a plate reader (EnSpire Multimode Plate Reader, PerkinElmer). The MIC value was determined as the lowest concentration of compound leading to no detectable growth.

Series [2] concerns LptA–LptA interaction (TM25LptA–TM18LptA, AA). Description: BACTH assay, inhibition of LptA–LptA interaction. The following applies: BTH101, 18 h, 30°C, 0.5 mM IPTG, 0.7, 1.0, 1.4, 2.8 μg/mL (sub-MIC); at least eight technical replicates from two independent experiments. It counts as cell-based, Escherichia coli. On the procedure: (§4) To study protein–protein interactions with the BACTH system, electrocompetent BTH101 cells were co-transformed with each pair of plasmids to be tested (Figure 2A), plated onto LB plates containing selective antibiotics (100 μg/mL ampicillin and 50 μg/mL spectinomycin) and incubated at 30°C for 24–48 h. Interaction efficiencies were quantified by determining the β-galactosidase activities in 96-well microtiter plates according to a protocol adapted from [Paschos et al. (2011)]. For this measurement, at least eight clones from each plasmid combination were analyzed for β-galactosidase activity in two independent experiments. […] The β-galactosidase activity was measured from 20 μL culture diluted in 80 μL PM2 buffer (70 mM Na2HPO4. 12H20, 30 mM NaH2PO4. H2O, 1 mM MgSO4, 0.2 mM MnSO4, pH 7.0) containing 8 mg/mL ortho-nitrophenyl-β-galactoside (ONPG), 0.01% SDS, and 50 mM β-mercaptoethanol. […] The optical densities at 420 and 550 nm were recorded for each sample using a plate reader (EnSpire Multimode Plate Reader, PerkinElmer) and the specific activity was calculated with the formula: Miller units = [OD420 - (1.75 × OD550)]/[t × OD600 × (volume in mL)] × 1000, where OD600 is the optical density at 600 nm after overnight incubation and t is the time in minutes needed for color formation.

A further series concerns LptC–LptAm complex. Description: NMR, disruption of LptC–LptAm complex. It counts as binding, Escherichia coli. To be noted: 2D-[1H,13C]-methyl-SOFAST, 25°C, 20 μM LptC, 40 μM LptAm, 42 μM peptide, 50 mM Na2HPO4 pH 8.0, 150 mM NaCl, 10% D2O. The method, then:
Nuclear magnetic resonance experiments were recorded at 25°C on Bruker 600 MHz spectrometer equipped with a triple resonance cryoprobe. […] Unlabeled LptAm at 40 μM prepared in the exact same buffer was added to LptC to achieve 100% of LptC complexed with LptAm. Thanatin or Scr at 42 μM was added to the complex and interaction experiments were followed using 2D-[^1H, ^13C]-methyl-SOFAST experiments. NMR experiments were processed and analyzed using Topspin 3.2 and CcpNmr 2.4.

The test system of a further series is E. coli WT strain MG1655. Description: MIC determination, WT strain MG1655. It counts as cell-based, Escherichia coli. On the procedure:
as §3

Series [3] has as its system E. coli permeabilized mutant AS19. Description: microbe, parasite or virus in culture. It counts as cell-based, Escherichia coli. To be noted: 24 h. The method, then:
as §3

Series [4] concerns E. coli permeabilized mutant NR698. Description: microbe, parasite or virus in culture. It counts as cell-based, Escherichia coli. To be noted: 24 h. The method, then: as §3
A further series concerns E. coli BTH101. Description: microbe, parasite or virus in culture. It counts as cell-based, Escherichia coli. On the procedure:
as §3

Series [5] has as its system LptC–LptAm interaction (T25LptC–TM18LptAm, CA). Description: BACTH assay, inhibition of LptC–LptAm interaction. It counts as cell-based, Escherichia coli. To be noted: BTH101, 18 h, 30°C, 0.5 mM IPTG, 0.7, 1.0, 1.4 μg/mL (sub-MIC), at least eight technical replicates from two independent experiments. The method, then: as §4
A further series relates to LptC–LptAm interaction. Description: SPR, effect on LptC binding to immobilized LptAm. More on the design: species or system Escherichia coli. The following applies: peptide up to 1 μM followed by LptC injection at 10 μM, HBS-N, listed as Scr.
Text: as §1, §2

For series [6] the following is noted: in vivo; cited from earlier work. An excerpt:
(§5) Due to its relevance in Gram-negative bacteria cell physiology, LPS biogenesis can be considered a promising target for the development of novel antibacterial molecules. Potent inhibitors of the lipid A biosynthesis were identified in past studies and are continuously in development ([Simpson and Trent, 2019]). Moreover, two compounds targeting the MsbA-mediated IM translocation process have been recently reported ([Ho et al., 2018]; [Zhang et al., 2018]). However, the only inhibitor of LPS biogenesis to have entered, so far, Phase III trials is Murepavadin, a macrocyclic peptidomimetic select ...

In series [7] the test system is Pseudomonas aeruginosa LptD. To be noted: ref Srinivas et al., 2010; Lehman and Grabowicz, 2019; cited from earlier work.
Text: as §5

The target in a further series is immobilized LptAm. Description: SPR, Kd of LptC–LptAm. More on the design: species or system Escherichia coli. To be noted: LptC (5.6–100 μM) over immobilized LptAm, CM3 chip, HBS-N, steady-state binding levels, read-out: Kd of LptC–LptAm interaction.
Text: as §1, §2

For series [8], the target named is T1, His6-LptC_(24-191), LptC lacking the first 23 residues of the transmembrane domain (Escherichia coli, UniProt P0ADV9 24-191).
T1 sequence (looked up): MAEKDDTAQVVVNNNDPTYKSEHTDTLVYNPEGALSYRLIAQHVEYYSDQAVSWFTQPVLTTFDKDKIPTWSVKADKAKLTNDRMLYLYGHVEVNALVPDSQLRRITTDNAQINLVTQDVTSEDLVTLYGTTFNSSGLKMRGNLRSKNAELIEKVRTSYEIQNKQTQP
Description: SPR. The following applies: both partners purified.

In brackets after ≈: the same amount, converted by molar mass. Entries after “also recorded” stand apart in the source; their conditions may differ. Residues, ends and D or L forms follow the SMILES beside them.

`CC[C@H](C)[C@H](NC(=O)[C@H](CS)NC(=O)[C@@H](NC(=O)[C@@H](N)Cc1ccc(O)cc1)C(C)C)C(=O)N[C@@H](CCCNC(=N)N)C(=O)N[C@@H](CCSC)C(=O)N[C@@H](CC(N)=O)C(=O)N[C@@H](CCCCN)C(=O)N[C@H](C(=O)N[C@@H](CO)C(=O)N1CCC[C@H]1C(=O)N[C@@H](CCCCN)C(=O)N[C@@H](CCC(N)=O)C(=O)N[C@@H](CCCNC(=N)N)C(=O)N[C@H](C(=O)N1CCC[C@H]1C(=O)NCC(=O)NCC(=O)N[C@@H](CCCNC(=N)N)C(=O)N[C@@H](CS)C(=O)N[C@@H](CCCCN)C(=O)O)[C@@H](C)O)[C@@H](C)CC` [Thanatin scramble] (H-YVCIRMNKISPKQRTPGGRCK-OH; N-terminus and C-terminus assumed): the “binding to immobilized LptAm” value in the series on LptAm is recorded as “no or little binding”. In series [1], the “MIC relative to WT strain / antibacterial activity” value is recorded as “no significant difference relative to the WT strain”. Also, the “effect on LptA–LptA interaction (β-galactosidase activity)” value in series [2] is “not capable of disrupting these periplasmic interactions in a dose-dependent manner”. Also, the “disruption of LptC–LptAm complex (175Ile and 184Ile δ1 methyl shifts)” value was “did not change LptC–LptAm spectra; also recorded: fails to disrupt the LptC–LptA interaction in vivo (BACTH assay) and in vitro (NMR)” in the series on LptC–LptAm complex; “no disruption of the LptC–LptAm complex” with LptC–LptAm complex (listed as thanatin scramble). In addition, the MIC entry is “above 64 μg/mL” in the series on E. coli WT strain MG1655 (MG1655, LB, 24 h, 37°C, start OD600 0.05, twofold dilutions 64 μg/mL to 62.5 ng/mL, OD600 read-out); 64 µg/mL (≈ 26.3 µM) in series [3] (AS19, LB, 37°C, start OD600 0.05, twofold dilutions 64 μg/mL to 62.5 ng/mL, OD600 read-out); 32 to 64 µg/mL in series [4] (NR698, LB, 37°C, start OD600 0.05, twofold dilutions 64 μg/mL to 62.5 ng/mL, OD600 read-out); greater than 64 µg/mL in the series on E. coli BTH101 (BTH101, LB, 24 h, 37°C, start OD600 0.05, twofold dilutions 64 μg/mL to 62.5 ng/mL, OD600 read-out). The antibacterial activity entry with E. coli WT strain MG1655 (scrambled vs thanatin, in words) is given as “loses the antibacterial activity”. The entries for the “effect on LptC–LptAm interaction (β-galactosidase activity)” value in series [5] and in series [5] (listed as thanatin scramble) were “fails to disrupt the LptC–LptA interaction in vivo (BACTH assay)” and “not capable of disrupting these periplasmic interactions in a dose-dependent manner”, respectively. Further, the “effect on LptC binding to immobilized LptAm” value with LptC–LptAm interaction is on record as “no effect on LptC binding”.

With `CN[C@H](CC(C)C)C(=O)N[C@H]1C(=O)N[C@@H](CC(N)=O)C(=O)N[C@H]2C(=O)N[C@H]3C(=O)N[C@H](C(=O)N[C@H](C(=O)O)c4cc(O)cc(O)c4-c4cc3ccc4O)[C@H](O)c3ccc(c(Cl)c3)Oc3cc2cc(c3O[C@@H]2O[C@H](CO)[C@@H](O)[C@H](O)[C@H]2O[C@H]2C[C@](C)(N)[C@H](O)[C@H](C)O2)Oc2ccc(cc2Cl)[C@H]1O` [Vancomycin, reference compound], the MIC is greater than 64 µg/mL against E. coli WT strain MG1655 (Escherichia coli, MG1655, 24 h); 4 to 8 µg/mL (≈ 2.76 to 5.52 µM) in [3] (Escherichia coli); 0.5 to 1 µg/mL (≈ 0.345 to 0.69 µM) in [4] (Escherichia coli); greater than 64 µg/mL in the series with E. coli BTH101 (Escherichia coli, BTH101, 24 h).

As for Murepavadin, the clinical toxicity result in series [6] is recorded as “nephrotoxicity”. Further, the target selectivity entry in series [7] was “selectively directed against Pseudomonas aeruginosa LptD”.

B1: LptC: Escherichia coli LptC lacking the first 23 residues of the transmembrane domain, with an N-terminal His-Tag (protein, UniProt P0ADV9 24-191, looked up, fragment)
chain: MAEKDDTAQVVVNNNDPTYKSEHTDTLVYNPEGALSYRLIAQHVEYYSDQAVSWFTQPVLTTFDKDKIPTWSVKADKAKLTNDRMLYLYGHVEVNALVPDSQLRRITTDNAQINLVTQDVTSEDLVTLYGTTFNSSGLKMRGNLRSKNAELIEKVRTSYEIQNKQTQP
modifications: N-terminal His-tag
notes: Escherichia coli LptC lacking the first 23 residues of the transmembrane domain, with an N-terminal His-Tag
The term Kd denotes the concentration at which binding is half-saturated. For the molecule B1, the Kd on immobilized LptAm came to 80 ± 44 µM.

B2: LptAm, LptA residues 28-159 followed by a … tag (purified) (domain or fragment, Escherichia coli, UniProt P0ADV1 28-159, looked up)
chain: VTGDTDQPIHIESDQQSLDMQGNVVTFTGNVIVTQGTIKINADKVVVTRPGGEQGKEVIDGYGKPATFYQMQDNGKPVEGHASQMHYELAKDFVVLTGNAYLQQVDSNIKGDKITYLVKEQKMQAFSDKGKR
notes: also called LptAΔ_(160–185)-His6; monomeric version of LptA; source: E. coli BL21(DE3) (pET21b vector), purified as described (Laguri et al., 2017)
In series [8], B2 showed a Kd of 80 ± 44 µM.
